Laboratory results as given in US20230039836A1, “AROMATIC SULPHONAMIDES DERIVATIVES THAT INHIBITS PDI A3, THEIR SYNTHESIS AND USE” (Uniwersytet Jagiellonski, priority 2020, published 2023).
Converted amounts (≈) assume the structure as drawn.

What was measured:
HT-29 [1] = assay: Long-term colony formation assay; format: cell-based, human; settings: treated at IC50 dose, colonies after 2 weeks; FIGS. 1A and 1B
Description: To confirm, anticancer effects, selected compounds of invention, PDIA1 inhibitors were tested in long-term colony formation assay. For long-term colony formation assay the human colorectal carcinoma cell lines Caco-2 and HT-29 were maintained as follows: HT-29 in RPMI-1640 with HEPES + OPTI-MEM (1:1) and Caco-2 in Eagle’s medium (all from IIET, Wroclaw, Poland) both culture media were supplemented with 2 mM L-glutamine, 1 mM sodium pyruvate (both from Sigma-Aldrich Chemie GmbH, Steinheim, Germany), fetal bovine serum: 5% HT-29 (GE Healthcare), 20% Caco-2 (Sigma-Aldrich Chemie GmbH, Steinheim, Germany), 100 U/ml penicillin, 100 µg/ml streptomycin (both from Polfa Tarchomin S.A., Warsaw, Poland). All cell lines were grown at 37° C. in a humidified atmosphere with 5% CO2. […] The viable cells were counted using a hemocytometer (trypan blue exclusion method) and seeded in triplicates at a density of 5 × 10^2 cells/3 ml and 2.5 × 10^2 cells/3 ml (9.5 cm^2) for Caco-2 and HT-29 respectively. […] After 2 weeks, the colonies were fixed and stained with 1% crystal violet/ethanol (Sigma-Aldrich), documented with Sony Alpha 300 camera (Sony), and counted manually using ImageJ 1.47 software (National Institutes of Health, Bethesda, MD, USA). Surviving fraction (SF) was calculated. […]

HT-29 [2] = assay: Cell cycle and cell death analysis; format: cell-based, human
Description: Cell cycle and cell death analysis has been performed as previously described (Milczarek M et al. , 2015). Compounds were tested 5 times independently. Obtained results were analyzed using BD FACSDiva 6.2 software.

HT-29 [3] = assay: MTT antiproliferative assay, 72 h; format: cell-based; settings: Homo sapiens, 72 hours exposition, read-out: IC50 [µg/ml] HT-29 normal
Description: (§1) Anticancer activity of PDI A1-inhibitors has been also tested in vitro in antiproliferative essay in normoxic and hypoxic conditions as well in estrogen-stimulated cancer cells. In the experiment, cells were seeded on 96-well plates (Sarstedt, Germany) in appropriate culture medium at a density of 10^5 cells/mL 24 h before adding the tested compounds. Cells were treated with each compound in four concentrations in the range 0.1-100 ug/mL. […] After 72 h of compound treatment at 37° C., 5 % CO2 humid atmosphere and in wo different oxygen level conditions: 21% - normal and <1% - hypoxia. In some experiments, the MDA-MB-231 and MCF-7 cells were seeded with or without 200 nM estradiol and after 24 h the tested compounds were added. A previously described sulforhodamine B antiproliferative assay was used with minor modifications (Skehan P et al., 1990). Briefly, cells were fixed with 50 µL/well of 50% (w/v) trichloroacetic acid (Avantor Performance Materials, Gliwice, Poland). After 1 h incubation, plates were washed several times with tap water and 50 µL of 0.4% (w/v) solution of sulforhodamine B (Sigma-Aldrich, Germany) in 1% (v/v) acetic acid (Avantor Performance Materials, Gliwice, Poland) was added to each well. After 30 min incubation at room temperature, unbound dye was washed out with 1% (v/v) acetic acid, whereas bound dye was solubilized with 10 mM unbuffered TRIS (Avantor Performance Materials, Gliwice, Poland) solution. The entire procedure was performed using a BioTek EL-406 washing station (BioTek Instruments, USA). After additional 30 min, absorbance was read using a Biotek Hybrid H4 reader (BioTek Instruments, USA) at 540 nm wavelength. MTT assay was used alternatively for HL-60 cell line and in the experiment in which estrogens are added (specified in the table legend). Absorbance was measured using a Biotek Hybrid H4 reader at 570 nm wavelength for MTT assay.
(§2) Compounds at each concentration were tested in triplicate in a single experiment and each experiment was repeated at least three times independently.
(§3) Results of in vitro antiproliferative effects are shown in Table 3 and Table 4 and are presented as mean IC50 ± SD calculated using the Prolab-3 system based on Cheburator 0.4 software.
(§4) Statistical analysis: Unpaired t test. *p<0.05 as compared to appropriate cells not pretreated with estradiol. MTT assay was used for antiproliferative activity assessment.

HL-60 = assay: MTT antiproliferative assay, 72 h; format: cell-based; settings: Homo sapiens, 72 hours exposition, read-out: IC50 [µg/ml] HL-60 normal
Description: as §1, §2, §3, §4

SMILES: COC(=O)C1CN1S(=O)(=O)c1ccccc1 (centres unmarked) [Compound C-3251, Methyl 1-(benzenesulfonyl)aziridine-2-carboxylate]
- Inhibition of long-term colonies formation, HT-29 (HT-29 [1]): much potent towards HT-29 than CaCo-2 cell line
- Cell cycle distribution, HT-29 (HT-29 [2]; FIG. 1C): decreased HT-29 cells in G0/G1 and increased in G2/M phase
- Percentage of death cells, HT-29 (HT-29 [2]; FIG. 1D): increased significantly the percentage of death HT-29 cells
- IC50 (HT-29 [3]): 37.2 ± 8.4 µg/mL (≈ 154 µM)
- IC50 (HL-60): 1.5 ± 0.1 µg/mL (≈ 6.22 µM)
